Assay results from paper PMC4634939 (Journal of medicinal chemistry, 2015).

Experiments:
TLR4 = target: T1, TLR4 (Mus musculus, UniProt Q9JHF9+Q9QUK6)
T1 sequence (Q9QUK6 26-835): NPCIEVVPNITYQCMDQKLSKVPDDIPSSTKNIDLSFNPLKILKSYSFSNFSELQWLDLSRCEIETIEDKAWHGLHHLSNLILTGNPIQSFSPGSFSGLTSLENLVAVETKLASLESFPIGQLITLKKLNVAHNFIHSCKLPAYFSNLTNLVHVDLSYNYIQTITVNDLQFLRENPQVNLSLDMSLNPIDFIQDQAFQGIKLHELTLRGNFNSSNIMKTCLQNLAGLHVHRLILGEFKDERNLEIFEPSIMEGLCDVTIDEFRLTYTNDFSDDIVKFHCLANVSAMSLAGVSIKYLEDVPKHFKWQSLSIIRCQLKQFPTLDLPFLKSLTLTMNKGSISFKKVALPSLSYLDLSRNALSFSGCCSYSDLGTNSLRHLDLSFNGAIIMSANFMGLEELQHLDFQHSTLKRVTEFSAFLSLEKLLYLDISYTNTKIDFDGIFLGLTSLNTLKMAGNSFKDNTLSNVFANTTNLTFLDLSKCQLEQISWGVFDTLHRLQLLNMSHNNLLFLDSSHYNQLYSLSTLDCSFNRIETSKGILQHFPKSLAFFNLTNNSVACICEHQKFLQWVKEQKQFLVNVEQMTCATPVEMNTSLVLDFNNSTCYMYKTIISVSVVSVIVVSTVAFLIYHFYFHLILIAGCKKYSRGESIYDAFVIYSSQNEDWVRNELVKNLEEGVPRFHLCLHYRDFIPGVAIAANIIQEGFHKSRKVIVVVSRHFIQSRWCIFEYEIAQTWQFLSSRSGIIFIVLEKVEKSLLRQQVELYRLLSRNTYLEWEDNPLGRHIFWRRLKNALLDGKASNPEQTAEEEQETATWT
T1 sequence (Q9JHF9 19-160): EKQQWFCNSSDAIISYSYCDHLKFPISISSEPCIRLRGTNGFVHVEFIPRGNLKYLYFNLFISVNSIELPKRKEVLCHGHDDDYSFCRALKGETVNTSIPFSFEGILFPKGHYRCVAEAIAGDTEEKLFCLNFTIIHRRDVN

[1] = Hargreaves test for analgesia; conditions: rat, intrathecal morphine 15 μg plus vehicle, P < 0.05

## O=C1CC[C@]2(O)[C@@H]3Cc4ccc(O)c5c4[C@]2(CCN3CCc2ccccc2)[C@@H]1O5 [1j, (4S,4aR,7aS,12bR)-4a,9-Dihydroxy-3-phenethyl-2,3,4,4a,5,6-hexahydro-1H-4,12-methanobenzofuro[3,2-e]isoquinolin-7(7aH)-one]
TLR4; IC50 of viability / IC50 of NO
  ratio of cell viability IC50 (cytotoxicity) to TLR4 antagonist activity: ~ 100
TLR4; relative to (+)-naltrexone 1a, NO assay in BV-2 cells
  TLR4 antagonist activity, times better than (+)-naltrexone: ~ 75 fold

## CN1CC[C@]23c4c5ccc(O)c4O[C@H]2[C@@H](O)C=C[C@H]3[C@H]1C5 [morphine]
[1]
  analgesia to radiant heat compared to baseline: produced significant analgesia to radiant heat
